Reference: ChEMBL document CHEMBL3112509, “Synthesis and antimicrobial activity of (1,4-phenylene)bis(arylsulfonylpyrazoles and isoxazoles)” (2014)
Converted amounts (≈) assume the structure as drawn. The source made the active and inactive calls. The calls are words filed in the database; no cut-off is given here.

What was measured:
Assay type in all cases: functional
[1] = tested on: Pseudomonas aeruginosa; test: Antibacterial activity against Pseudomonas aeruginosa at 50 ug/well after 24 hrs by agar well diffusion method; conditions: for zone of inhibition at 50 µg/disc: read-out: DIZ
[2] = tested on: Pseudomonas aeruginosa; test: Antibacterial activity against Pseudomonas aeruginosa at 100 ug/well after 24 hrs by agar well diffusion method; conditions: for zone of inhibition at 100 µg/disc: read-out: DIZ
[3] = tested on: Staphylococcus aureus; test: Antibacterial activity against Staphylococcus aureus at 100 ug/well after 24 hrs by agar well diffusion method; conditions: for zone of inhibition at 100 µg/disc: read-out: DIZ
[4] = tested on: Aspergillus niger; test: Antifungal activity against Aspergillus niger at 50 ug/well after 48 hrs by agar well diffusion method; conditions: read-out: DIZ
[5] = tested on: Aspergillus niger; test: Antifungal activity against Aspergillus niger at 100 ug/well after 48 hrs by agar well diffusion method; conditions: read-out: DIZ
[6] = tested on: Bacillus subtilis; test: Antibacterial activity against Bacillus subtilis at 100 ug/well after 24 hrs by agar well diffusion method; conditions: for zone of inhibition at 100 µg/disc: read-out: DIZ
[7] = tested on: Klebsiella pneumoniae; test: Antibacterial activity against Klebsiella pneumoniae after 24 hrs by broth dilution test
[8] = tested on: Aspergillus niger; test: Antifungal activity against Aspergillus niger after 48 hrs by broth dilution test
[9] = tested on: Penicillium chrysogenum; test: Antifungal activity against Penicillium chrysogenum at 100 ug/well after 48 hrs by agar well diffusion method; conditions: read-out: DIZ
[10] = tested on: Staphylococcus aureus; test: Antibacterial activity against Staphylococcus aureus at 50 ug/well after 24 hrs by agar well diffusion method; conditions: for zone of inhibition at 50 µg/disc: read-out: DIZ
[11] = tested on: Penicillium chrysogenum; test: Antifungal activity against Penicillium chrysogenum at 50 ug/well after 48 hrs by agar well diffusion method; conditions: read-out: DIZ
[12] = tested on: Aspergillus niger; test: Antifungal activity against Aspergillus niger after 48 hrs
[13] = tested on: Staphylococcus aureus; test: Antibacterial activity against Staphylococcus aureus after 24 hrs
[14] = tested on: Klebsiella pneumoniae; test: Antibacterial activity against Klebsiella pneumoniae after 24 hrs
[15] = tested on: Klebsiella pneumoniae; test: Antibacterial activity against Klebsiella pneumoniae at 100 ug/well after 24 hrs by agar well diffusion method; conditions: for zone of inhibition at 100 µg/disc: read-out: DIZ
[16] = tested on: Pseudomonas aeruginosa; test: Antibacterial activity against Pseudomonas aeruginosa after 24 hrs
[17] = tested on: Penicillium chrysogenum; test: Antifungal activity against Penicillium chrysogenum after 48 hrs by broth dilution test
[18] = tested on: Staphylococcus aureus; test: Antibacterial activity against Staphylococcus aureus after 24 hrs by broth dilution test
[19] = tested on: Bacillus subtilis; test: Antibacterial activity against Bacillus subtilis after 24 hrs by broth dilution test
[20] = tested on: Penicillium chrysogenum; test: Antifungal activity against Penicillium chrysogenum after 48 hrs
[21] = tested on: Klebsiella pneumoniae; test: Antibacterial activity against Klebsiella pneumoniae at 50 ug/well after 24 hrs by agar well diffusion method; conditions: for zone of inhibition at 50 µg/disc: read-out: DIZ
[22] = tested on: Bacillus subtilis; test: Antibacterial activity against Bacillus subtilis after 24 hrs
[23] = tested on: Bacillus subtilis; test: Antibacterial activity against Bacillus subtilis at 50 ug/well after 24 hrs by agar well diffusion method; conditions: for zone of inhibition at 50 µg/disc: read-out: DIZ
[24] = tested on: Pseudomonas aeruginosa; test: Antibacterial activity against Pseudomonas aeruginosa after 24 hrs by broth dilution test

MIC [7] [µg/mL]	MIC [8] [µg/mL]	MIC [17] [µg/mL]	MIC [18] [µg/mL]	MIC [19] [µg/mL]	MIC [24] [µg/mL]	Structure (SMILES)	zone of inhibition at 50 µg/disc [1] [mm]	zone of inhibition at 100 µg/disc [2] [mm]	zone of inhibition at 100 µg/disc [3] [mm]	zone of inhibition at 50 µg/disc [4] [mm]	zone of inhibition at 100 µg/disc [5] [mm]	zone of inhibition at 100 µg/disc [6] [mm]	zone of inhibition at 100 µg/disc [9] [mm]	zone of inhibition at 50 µg/disc [10] [mm]	zone of inhibition at 50 µg/disc [11] [mm]	MFC [12] [µg/mL]	MBC [13] [µg/mL]	zone of inhibition at 100 µg/disc [15] [mm]	zone of inhibition at 50 µg/disc [21] [mm]	zone of inhibition at 50 µg/disc [23] [mm]	also measured
100 (≈ 135 µM)	50 (≈ 67.4 µM)	25 (≈ 33.7 µM)	50 (≈ 67.4 µM)	25 (≈ 33.7 µM)	50 (≈ 67.4 µM)	Cc1ccc(S(=O)(=O)c2c(-c3ccc(Cl)cc3)noc2-c2ccc(-c3onc(-c4ccc(Cl)cc4)c3S(=O)(=O)c3ccc(C)cc3)cc2)cc1	22	24	32	28	30	36	34	30	32	> 200	200 (≈ 270 µM)	28	26	33	MBC [14]: > 200 µg/mL; MBC [16]: > 200 µg/mL; MFC [20]: 100 µg/mL (≈ 135 µM); MBC [22]: 100 µg/mL (≈ 135 µM)
100 (≈ 107 µM)	50 (≈ 53.6 µM)	25 (≈ 26.8 µM)	50 (≈ 53.6 µM)	50 (≈ 53.6 µM)	50 (≈ 53.6 µM)	O=S(=O)(c1ccc(Cl)cc1)c1c(-c2ccc(Cl)cc2)nn(-c2ccccc2)c1-c1ccc(-c2c(S(=O)(=O)c3ccc(Cl)cc3)c(-c3ccc(Cl)cc3)nn2-c2ccccc2)cc1	20	22	31	34	37	34	31	29	28	> 200	> 200	27	25	32	MBC [14]: > 200 µg/mL; MBC [16]: > 200 µg/mL; MFC [20]: > 100 µg/mL; MBC [22]: 200 µg/mL (≈ 214 µM)
–	–	–	–	–	–	COc1ccc(C2=NN(c3ccccc3)C(c3ccc(C4C(S(=O)(=O)c5ccccc5)C(c5ccc(OC)cc5)=NN4c4ccccc4)cc3)C2S(=O)(=O)c2ccccc2)cc1 (stereo not drawn)	–	–	–	8	10	–	16	–	12	–	–	–	–	–	diameter of the inhibition zone (DIZ) [1]: inactive; diameter of the inhibition zone (DIZ) [2]: inactive; diameter of the inhibition zone (DIZ) [3]: inactive; diameter of the inhibition zone (DIZ) [6]: inactive; diameter of the inhibition zone (DIZ) [10]: inactive; diameter of the inhibition zone (DIZ) [15]: inactive; diameter of the inhibition zone (DIZ) [21]: inactive; diameter of the inhibition zone (DIZ) [23]: inactive

Structure (SMILES)	MIC [7] [µg/mL]	MIC [8] [µg/mL]	MIC [17] [µg/mL]	MIC [18] [µg/mL]	MIC [19] [µg/mL]	MIC [24] [µg/mL]	zone of inhibition at 50 µg/disc [1] [mm]	zone of inhibition at 100 µg/disc [2] [mm]	zone of inhibition at 100 µg/disc [3] [mm]	zone of inhibition at 50 µg/disc [4] [mm]	zone of inhibition at 100 µg/disc [5] [mm]	zone of inhibition at 100 µg/disc [6] [mm]	zone of inhibition at 100 µg/disc [9] [mm]	zone of inhibition at 50 µg/disc [10] [mm]	zone of inhibition at 50 µg/disc [11] [mm]	MFC [12] [µg/mL]	MBC [13] [µg/mL]	zone of inhibition at 100 µg/disc [15] [mm]	zone of inhibition at 50 µg/disc [21] [mm]	zone of inhibition at 50 µg/disc [23] [mm]	also measured
CC(=O)N1CCN(c2ccc(OCC3COC(Cn4ccnc4)(c4ccc(Cl)cc4Cl)O3)cc2)CC1 (stereo not drawn) [KETOCONAZOLE]	–	6.25 (≈ 11.8 µM)	12.5 (≈ 23.5 µM)	–	–	–	–	–	–	33	36	–	38	–	36	–	–	–	–	–	–
O=C(N[C@H](CO)[C@H](O)c1ccc([N+](=O)[O-])cc1)C(Cl)Cl [CHLORAMPHENICOL]	12.5 (≈ 38.7 µM)	–	–	6.25 (≈ 19.3 µM)	6.25 (≈ 19.3 µM)	6.25 (≈ 19.3 µM)	27	30	35	–	–	38	–	33	–	–	–	42	40	34	–
